# Tests used:
# DLD1-WRN-KO cells = experiment: Proliferation assay DLD1-WRN-KO (CellTiterGlo, 96 hours), off-target effects; format: cell-based; conditions: Homo sapiens
# In short: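 Cells in RPMI-1640/10% FCS were seeded overnight (SW48 2'000, DLD1-WRN-KO 1'500 cells/well), then exposed to eight 3-fold compound dilutions at 0.1% DMSO. ATP luminescence relative to a day-0 plate gives % growth (0% stasis, −100% complete kill). GI50 is the geometric mean of ≥2 independent replicates.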
# [1] = Storage stability of the solid at RT; format: physicochemical; conditions: stored at RT under ambient atmosphere for several months; degradation product Example 25
# Description: 2.60 g (3.51 mmol) of Example 21A (7R,9R)—N-(2-chloro-4-(trifluoromethyl)phenyl)-2-(3,6-dihydro-2H-pyran-4-yl)-6-((1S,6S)-5-(5-hydroxy-6-methylpyrimidine-4-carbonyl)-2,5-diazabicyclo[4.2.0]octan-2-yl)-7-methyl-5-oxo-5,7,8,9-tetrahydropyrrolo[1,2-c][1,2,4]triazolo[1,5-a]pyrimidine-9-carboxamide was stored at RT under ambient atmosphere for several months, by which the purity decreased to 86%. The degradation product title compound Example 25 was isolated by column chromatography (RediSep Column: Silica 80 g, eluent DCM:MeOH 100:0 to 90:10). The product containing fractions were combined and concentrated under reduced pressure to give a yellow foam. This foam was further purified by chiral SFC (instrument: Waters Prep SFC100-MS; column: Chiralpak IB-N 250 mm×30 mm 5 μm; eluent: A: 55% MeOH+0.1% NH3, B: 45% scCO2; flow rate: 78.0 mL/min; detection: DAD; injection volume: 1.1 mL; gradient: isocratic A: 55%, B: 45%).
Compound,GI50 (DLD1-WRN-KO cells),purity after storage [1]
"Cc1ncnc(C(=O)N2CCN(c3c4n(c5nc(C6=CCOCC6)nn5c3=O)[C@@H](C(=O)Nc3ccc(C(F)(F)F)cc3Cl)C[C@H]4C)C[C@H]2C)c1O [Example 18A, (7R,9R)—N-(2-chloro-4-(trifluoromethyl)phenyl)-2-(3,6-dihydro-2H-pyran-4-yl)-6-((R)-4-(5-hydroxy-6-methylpyrimidine-4-carbonyl)-3-methylpiperazin-1-yl)-7-methyl-5-oxo-5,7,8,9-tetrahydropyrrolo[1,2-c][1,2,4]triazolo[1,5-a]pyrimidine-9-carboxamide]",> 50 µM,–
"Cc1ncnc(C(=O)N2CCN(c3c4n(c5nc(C6=CCOCC6)nn5c3=O)[C@@H](C(=O)Nc3ccc(C(F)(F)F)cc3Cl)C[C@H]4C)[C@H]3CC[C@@H]32)c1O [Example 21A, (7R,9R)—N-(2-chloro-4-(trifluoromethyl)phenyl)-2-(3,6-dihydro-2H-pyran-4-yl)-6-((1S,6S)-5-(5-hydroxy-6-methylpyrimidine-4-carbonyl)-2,5-diazabicyclo[4.2.0]octan-2-yl)-7-methyl-5-oxo-5,7,8,9-tetrahydropyrrolo[1,2-c][1,2,4]triazolo[1,5-a]pyrimidine-9-carboxamide]",> 50 µM,86%
